Experimental data: patent publication US8609814B2, “Modified globin proteins with altered electron transport pathway” (University of Essex Enterprises Limited, priority 2007, dated 2013)

B1: myoglobin: myoglobin in its ferryl oxidation state, two site model based on FIGS. 1 and 2 data (protein, UniProt P02144 2-154, looked up)
Myoglobin: GLSDGEWQLVLNVWGKVEADIPGHGQEVLIRLFKGHPETLEKFDKFKHLKSEDEMKASEDLKKHGATVLTALGGILKKKGHHEAEIKPLAQSHATKHKIPVKYLEFISECIIQVLQSKHPGDFGADAQGAMNKALELFRKDMASNYKELGFQG
modifications: ferryl oxidation state
B2: Horse myoglobin: ferric horse myoglobin from Sigma-Aldrich, further purified by gel filtration (protein, UniProt P68082 2-154, looked up)
Myoglobin: GLSDGEWQQVLNVWGKVEADIAGHGQEVLIRLFTGHPETLEKFDKFKHLKTEAEMKASEDLKKHGTVVLTALGGILKKKGHHEAELKPLAQSHATKHKIPIKYLEFISDAIIHVLHSKHPGDFGADAQGAMTKALELFRNDIAAKYKELGFQG
modifications: ferric
notes: ferric horse myoglobin from Sigma-Aldrich, further purified by gel filtration

Columns and labels:
[1] = ferryl myoglobin reduction kinetics by deferiprone; type: biochemical; settings: for concentration dependence of ferryl reduction rate constant (high affinity through-protein electron transfer pathway): reductant deferiprone, ferryl myoglobin 10 μM, sodium phosphate pH 7.4, 25° C.
Experimental: In this example the kinetics of the reduction of ferryl haem from myoglobin from different species to ferric haem protein were examined kinetically to determine the presence or absence of a high affinity-through protein pathway. Following the procedure, ferric horse myoglobin from Sigma-Aldrich (Poole, Dorset, UK, further purified by gel filtration), or recombinant ferric Aplysia myoglobin Mb (20 μM) in 5 mM sodium phosphate pH 7.4 was reacted with H2O2 (20 μM) at 25° C. for 15 min. At this time conversion of ferric myoglobin to ferryl myoglobin was greater than 95% as measured by addition of sodium sulfide (1 mM). Catalase (10 nM) was added to remove unreacted H2O2 and was left to react for a further 1 min. At the pH used the ferryl haem protein is stable for several hours. Reductant was then added in 0.1M sodium phosphate pH 7.4 in a 1:1 volume ratio so that final concentration of ferryl myoglobin was 10 μM. The pH may be ‘jumped’ to other values where the ferryl haem is unstable using other strong buffers (e.g. 0.1M sodium acetate, pH 5). The optical spectrum was followed until reaction was complete. The time course (425 nm-408 nm) was fitted to a single exponential function using the least squares method. These rate constants were then plotted as a function of reductant concentration and this profile fitted (least squares method) to a double rectangular hyperbola (FIG. 1):
Where ka and kb are the maximum rates for each hyperbola and KD1 and KD2 are the dissociation constants, S is the concentration of the reductant and AR is the rate constant for ferryl auto-reduction.
Wild-type and recombinant sperm whale myoglobin and recombinant Tyr103>Phe sperm whale myoglobin were reacted with peroxide and the kinetics of ferryl haem reduction by deferiprone determined as described in example 1. The through-protein electron transfer pathway, evident in wild type sperm whale myoglobin, is not observed in the Tyr103>Phe mutant (FIG. 2).

[2] = ferryl human haemoglobin reduction kinetics by ascorbate; type: biochemical; settings: reductant ascorbate; 10 μM ferryl protein; sodium phosphate pH 7.4; double exponential fit
Excerpt: Recombinant human haemoglobin was reacted with peroxide and the kinetics of ferryl haem reduction by ascorbate determined as described in example 1. The time course of ferryl haem reduction is not single exponential, as observed with myoglobin, but can be described using a double exponential function that generates two rate constants, one representing the observed rate constant for ferryl reduction of the alpha subunit and one representing the observed rate constant for ferryl reduction of the beta subunit.

| Molecule | concentration dependence of ferryl reduction rate constant (high affinity through-protein electron transfer pathway) [1] | also measured |
| --- | --- | --- |
| Tyr103>Phe mutant: recombinant Tyr103>Phe sperm whale myoglobin | not observed |  |
| wild type ferryl human haemoglobin: recombinant wild type human haemoglobin, alpha and beta subunits |  | concentration dependence of ferryl reduction rate constant, alpha subunit [2]: double rectangular hyperbola concentration dependence |
| wild type sperm whale myoglobin: wild-type recombinant sperm whale myoglobin | evident |  |
| B1 |  | kmax, transfer of an electron through the protein to the ferryl haem iron (high affinity site) ([1]; two site model of FIGS. 1 and 2 data, site at or close to Tyr103): ≈ 0.01 s^−1 |
| B2 | shows a double rectangular hyperbola concentration dependence |  |
